Measured values published in US11479561B2, “Tetrahydroisoquinoline derivatives” (Cytokinetics, Incorporated, priority 2016, dated 2022).

Experiments:
[1] = test system: ankle plantarflexor muscle; assay: Rat isometric ankle plantarflexor muscle force; assay type: in vivo, Sprague Dawley rats; conditions: estimated, concentration at which muscle force is 50% of the pre-dose maximum tension, 30 Hz stimulation, continuous intravenous infusion over 60 min
Description: Female Sprague Dawley rats were placed under a stable anesthesic plane with inhaled isoflurane (1-5%). One incision was made on the mid-thigh region of the right leg to expose the sciatic nerve. To prevent co-contraction of the ankle dorsiflexors, an additional incision was made lateral to the patella to isolate and sever the peroneal nerve. Rats were then placed on a temperature-maintained in situ muscle analysis rig (Aurora Scientific, Model 806C). The knee was immobilized in a clamp between two sharpened screws and the foot was taped to a footplate attached to a force transducer (Aurora Scientific, Ontario, Canada). Stainless steel needle electrodes (0.10 mm) were hooked around the exposed sciatic nerve. Isometric ankle plantarflexor muscle contractile force was assessed with the ankle joint at 90° flexion. A 30 Hz electrical stimulation (under supramaximal voltage conditions) was applied to the nerve and the resulting muscle force was recorded via a servomotor. A pre-dose 30 Hz force response was established as the baseline force. A pre-dose 150 Hz force response was established as the maximum isometric force. Compounds were formulated in 50% polyethylene glycol (PEG): 16% Cavitron: 10% dimethylacetamide (DMA) and administered by continuous intravenous infusion over a sixty minute period. The muscle force response to compound was measured every two minutes over the dosing period. Data was reported as an estimated EC50 value, which is the concentration at which muscle force is 50% of the pre-dose maximum tension.

[2] = test system: rabbit skeletal myofibrils (approximately 90% fast fibers); assay: Activation of fast skeletal myofibrils (PUMA coupled-enzyme ATPase assay); assay type: biochemical; conditions: concentration at which the compound increased the enzymatic activity by 40%; calcium level pCa25
Description: Preparation of fast skeletal myofibrils: Rabbit skeletal myofibrils were prepared based upon the method of Herrmann et al. (Biochem. 32(28):7255-7263(1993). Myofibrils were prepared from rabbit psoas muscle purchased from Pel-Freez Biologicals (Arkansas) within 2 days of ordering, stored on ice. Minced muscle was homogenized in 10 volumes of ice-cold “standard” buffer (50 mM Tris, pH 7.4, 0.1 M KOAc, 5 mM KCl, 2 mM dithiothreitol (DTT), 0.2 mM phenylmethylsulfonyl fluoride (PMSF), 10 μM leupeptin, 5 μM pepstatin, and 0.5 mM sodium azide) containing 5 mM ethylenediaminetetraacetic acid (EDTA) and 0.5% Triton X-100 using an Omni-Macro homogenizer. Myofibrils were recovered by low speed centrifugation (3000 rpm for 10 minutes) and washed 2 times in the Triton X-100 containing buffer to ensure removal of cellular membrane. Following the Triton washes, myofibrils were washed 3 times in “standard” buffer containing 2 mM magnesium acetate. A final wash in assay buffer (12 mM piperazine-1,4-bis(2-ethanesulfonic acid) (PIPES), pH 6.8, 60 mM KCl, 1 mM DTT) was performed and brought to 10% sucrose for flash freezing in liquid nitrogen and storage at −80° C.
Activation of Fast Skeletal Myofibrils: Fast fiber activators were identified by Measuring the enzymatic activity of muscle myofibril preparations using the proprietary PUMA (trademark) (see, e.g., U.S. Pat. Nos. 6,410,254, 6,743,599, 7,202,051, and 7,378,254) assay system. Myofibril preparations consisted of rabbit skeletal muscle (approximately 90% fast fibers) that had been mechanically homogenized and washed with a detergent (Triton X-100) to remove cellular membranes. This preparation retained all of the sarcomeric components in a native conformation and the enzymatic activity was still regulated by calcium. Compounds were tested using a myofibril suspension and a level of calcium sufficient to increase enzymatic activity of the myofibrils to 25% of their maximal rate (termed pCa25). Enzymatic activity was tracked via a pyruvate kinase and lactate dehydrogenase-coupled enzyme system. This assay regenerates myosin-produced ADP into ATP by oxidizing NADH, producing an absorbance change at 340 nm. The buffering system was 12 mM PIPES, 2 mM MgCl2, 1 mM DTT at pH 6.8 (PM12 buffer).

[3] = test system: rat model of post-SCI; assay: Basso, Beattie, and Bresnahan (BBB) score of post-spinal cord injury (SCI); assay type: in vivo, SD rats; conditions: post-SCI rats; day 6-7, 13-14, 20-21 after SCI; FIG. 8
Description: Preparation of the rat model of post-SCI: The rat model was prepared based on the method of Scheff et. al. (J Neurotrauma. 2003 February; 20(2):179-93.) which uses Infinite Horizon impactor (IH-0400; Precision Systems and Instrumentation). Female SD rats (10 week old) were anesthetized with a mixture of 0.3 mg/kg medetomidine, 4 mg/kg midazoram, and 5 mg/kg butorphanol (s.c.). The dorsal region of the rats was incised and the thoracic spine from T8 to T12 was exposed. Subsequently, laminectomy was performed on T9 and T10. On the stage of IH-0400, the exposed spinal column of the rats was stabilized by clamping with two forceps attached to the joints of IH-0400. Each of the joint and the forceps was tightly locked. Injury of T9 and T10 was induced with a rod impact of 210 kdyn. After dorsal closure, the rats were housed one per cage under the postoperative care which includes the injections of 5 mL saline s.c. and 50 mg/kg Cefamezin s.c twice a day for a week after the SCI, and includes the manual expression of the bladder of the rats twice a day using Crede maneuver until the function of the bladder recovers. […] The effect of Example Compound 52 or vehicle was analyzed using unpaired t test (a probability value of less than 0.05 was considered as a significant difference). Data were expressed as the mean±SEM.

Row | SMILES | AC1.4 [2] [µM] | EC50 ([1]; Rattus norvegicus, iv, 1 h) [µM] | EC50 [1] [µM] | BBB score [3]
1 | CCC1(CC)C(=O)NC2(COC2)c2ccc(OCC(F)(F)F)nc21 [compound 11] |  | 17 |  | 
2 | CCC1(CC)C(=O)NC2(COC2)c2cccnc21 [compound 12] |  | 34 |  | 
3 | CCC1(CC)C(=O)NC2(COC2)c2ccc(C(F)F)nc21 [compound 13] |  | 19.5 |  | 
4 | CCC1(CCO)C(=O)NC2(COC2)c2ccc(OC(F)F)nc21 (centres unmarked) [compound 15] |  | 16.4 |  | 
5 | CCC1(CC)C(=O)NC2(COC2)c2ccc(C#N)nc21 [compound 16] |  | 13 |  | 
6 | CC1(C)C(=O)NC2(COC2)c2ccc(OC(F)F)nc21 [compound 18] |  | 16 |  | 
7 | CC1(CCO)C(=O)NC2(COC2)c2ccc(OC(F)F)nc21 (centres unmarked) [compound 19] |  | 35 |  | 
8 | CC1(C)C(=O)NC2(COC2)c2ccc(C#N)cc21 [compound 20] |  | 30 |  | 
9 | CCC1(CC)C(=O)NC(C)(C)c2ccc(Br)cc21 [compound 49] | <0.077 | 8.2 |  | 
10 | CC1(C)C(=O)NC2(COC2)c2ccc(Cl)cc21 [compound 52, 6-chloro-4,4-dimethyl-2H-spiro[isoquinoline-1,3′-oxetan]-3(4H)-one] | 0.326 | 25.6 |  | increased BBB score
11 | CCC1(CC)C(=O)NC2(COC2)c2ccc(C#N)cc21 [compound 55, 4,4-diethyl-3-oxo-3,4-dihydro-2H-spiro[isoquinoline-1,3′-oxetane]-6-carbonitrile] | 0.141 | 7.6 |  | 
12 | CC1(CCO)C(=O)NC2(COC2)c2ccc(C#N)cc21 (centres unmarked) [compound 56] | 2.067 | 30 |  | 
13 | CCC1(CC)C(=O)NC(C)(C)c2ncc(C#N)cc21 [compound 57] | 0.976 | 28 |  | 
14 | CCC1(CC)C(=O)NC(C)(C)c2ccc(C#N)nc21 [compound 64] | 0.390 | 10 |  | 
15 | CCC1(CC)C(=O)NC(C)(C)c2ncc(Cl)cc21 [compound 72] | 0.420 | 15.4 |  | 
16 | CCC1(CC)C(=O)NC2(COC2)c2ncc(Cl)cc21 [compound 74] | 0.902 | 15.4 |  | 
17 | CCC1(C)C(=O)NC(C)(C)c2ccc(C#N)nc21 (centres unmarked) [compound 108] | 0.450 | 23 |  | 
18 | CC1(C)NC(=O)C2(CCN(S(C)(=O)=O)CC2)c2cc(Cl)ccc21 [compound 155, 6-chloro-1,1-dimethyl-1′-(methylsulfonyl)-1,2-dihydro-3H-spiro[isoquinoline-4,4′-piperidin]-3-one] | 8.340 |  |  | 

Continued, in another order:

Row | AC1.4 [2] [µM] | SMILES | EC50 ([1]; Rattus norvegicus, iv, 1 h) [µM] | EC50 [1] [µM] | BBB score [3]
19 | 0.565 | CC1(CCO)C(=O)NC2(COC2)c2ccc(Cl)cc21 (centres unmarked) [compound 35, 6-chloro-4-(2-hydroxyethyl)-4-methyl-2H-spiro[isoquinoline-1,3′-oxetan]-3(4H)-one] |  | 23 | 
20 | 0.537 | CC1(C)NC(=O)C(C)(C)c2cc(C#N)ccc21 [compound 61] | 10.3 |  | 
21 | 1.571 | CC1(C)NC(=O)C(C)(C)c2cc(Cl)cnc21 [compound 73] | 50 |  | 
22 | 2.228 | CCC1(CCO)C(=O)NC2(COC2)c2ccc(C#N)nc21 (centres unmarked) [compound 101] | 24 |  | 
23 | 1.247 | CCC1(CCO)C(=O)NC2(COC2)c2ccc(C(F)F)nc21 (centres unmarked) [compound 103] | 23 |  | 
24 | 5.017 | CCC1(CCO)C(=O)NC2(COC2)c2ccc(C(F)F)nc21 (centres unmarked) [compound 104] |  | 30 | 
25 | 0.494 | CCC1(CC)C(=O)NC2(COC2)c2ncc(C#N)nc21 [compound 106] | 15 |  | 
26 | 1.919 | CC1(C)NC(=O)C(C)(Cc2cc[nH]n2)c2nc(C#N)ccc21 (centres unmarked) [compound 109] | 39.7 |  | 
27 | 0.271 | CC1(CC(F)F)C(=O)NC2(COC2)c2ccc(OC(F)F)nc21 (centres unmarked) [compound 113] | 8 |  | 
28 | 1.590 | CC1(C)NC(=O)C(C)(C)c2nc(C#N)cnc21 [compound 153] |  |  | 
29 | 5.881 | COC(=O)N1CCC2(CC1)C(=O)NC(C)(C)c1ccc(Cl)cc12 [compound 156] |  |  | 
30 | 2.566 | CC1(C)C(=O)NC2(COC2)c2ccc(F)cc21 [compound 157] |  |  | 
31 | 11.374 | CC1(C)NC(=O)C(C)(CCO)c2cc(Cl)cnc21 (centres unmarked) [compound 159] |  |  | 
32 | 1.987 | CCC1(CC)C(=O)NC2(COC2)c2ncc(C#N)cc21 [compound 161] |  |  | 
33 | 1.202 | CCC1(CCO)C(=O)NC2(COC2)c2ccc(C#N)cc21 (centres unmarked) [compound 165] |  |  | 
34 | 1.730 | CC1(C)C(=O)NC2(COC2)c2ccc(C(F)F)nc21 [compound 169] |  |  | 
